Data as given in patent US6737383B1, “Herbicidal oxadiazolidines” (priority 1999, dated 2004).

Key:
[1] = tested on: velvetleaf; assay: Test B pre/postemergence velvetleaf; type: in vivo, Abutilon theophrasti; conditions: Preemergence
Method in brief: (§1)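 Herbicidal effect was estimated by eye on a ten-point control scale after plants spent twelve to sixteen days in a greenhouse following soil or foliar treatment. Foliar sprays targeted plants at one to four leaves; all doses were formulated in a non-phytotoxic solvent with surfactant.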

[2] = tested on: morningglory; assay: Test B pre/postemergence morningglory; type: in vivo, Ipomoea hederacea; conditions: Preemergence
Method in brief: as §1

[3] = tested on: soybean; assay: Test B pre/postemergence soybean; type: in vivo, Glycine max; conditions: Preemergence
Method in brief: as §1

[4] = tested on: wheat; assay: Test B pre/postemergence wheat; type: in vivo, Triticum aestivum; conditions: Preemergence
Method in brief: as §1

[5] = tested on: cocklebur; assay: Test B pre/postemergence cocklebur; type: in vivo, Xanthium strumarium; conditions: Preemergence
Method in brief: as §1

[6] = tested on: corn; assay: Test B pre/postemergence corn; type: in vivo, Zea mays; conditions: Preemergence
Method in brief: as §1

[7] = tested on: sugar beet; assay: Test B pre/postemergence sugar beet; type: in vivo, Beta vulgaris; conditions: Preemergence
Method in brief: as §1

[8] = tested on: surinam grass; assay: Test B pre/postemergence surinam grass; type: in vivo, Brachiaria decumbens; conditions: Preemergence
Method in brief: as §1

[9] = tested on: pigweed; assay: Test B pre/postemergence pigweed; type: in vivo, Amaranthus retroflexus; conditions: Preemergence
Method in brief: as §1

[10] = tested on: wild oat; assay: Test B pre/postemergence wild oat; type: in vivo, Avena fatua; conditions: Preemergence
Method in brief: as §1

[11] = tested on: giant foxtail; assay: Test B pre/postemergence giant foxtail; type: in vivo, Setaria faberii; conditions: Preemergence
Method in brief: as §1

[12] = tested on: crabgrass; assay: Test B pre/postemergence crabgrass; type: in vivo, Digitaria sanguinalis; conditions: Preemergence
Method in brief: as §1

[13] = tested on: bedstraw; assay: Test B pre/postemergence bedstraw; type: in vivo, Galium aparine; conditions: Preemergence
Method in brief: as §1

[14] = tested on: blackgrass; assay: Test B pre/postemergence blackgrass; type: in vivo, Alopecurus myosuroides; conditions: Preemergence
Method in brief: as §1

[15] = tested on: rape; assay: Test B pre/postemergence rape; type: in vivo, Brassica napus; conditions: Preemergence
Method in brief: as §1

[16] = tested on: purple nutsedge; assay: Test B pre/postemergence purple nutsedge; type: in vivo, Cyperus rotundus; conditions: Preemergence, scale of 0 to 10 where 0 is no effect and 10 is complete control; for Nutsedge plant response rating: Rate 62 g/ha
Method in brief: as §1

[17] = Rate 62 g/ha, scale of 0 to 10 where 0 is no effect and 10 is complete control
[18] = Rate 125 g/ha, scale of 0 to 10 where 0 is no effect and 10 is complete control
[19] = Rate 250 g/ha, scale 0 to 10 (0 no effect, 10 complete control)
[20] = Rate 500 g/ha, scale of 0 to 10 where 0 is no effect and 10 is complete control

CC(C)N(C(=O)n1oc(=O)n(CCF)c1=O)c1ccccc1 [Compound 669]
10: Plant response rating, B. signalgrass [8, 19] | Plant response rating, B. signalgrass [8, 20] | Redroot pigweed plant response rating [9, 18] | Plant response rating, Redroot pigweed [9, 19] | Plant response rating, Redroot pigweed [9, 20] | Wild oats plant response rating [10, 17] | Wild oats plant response rating [10, 18] | Plant response rating, Wild oats [10, 19] | Plant response rating, Wild oats [10, 20] | Plant response rating, Giant foxtail [11, 19] | Plant response rating, Giant foxtail [11, 20] | Plant response rating, Crabgrass [12, 20] | Blackgrass plant response rating [14, 18] | Plant response rating, Blackgrass [14, 19] | Plant response rating, Blackgrass [14, 20]
3: Plant response rating, Soybean [3, 19]
8: Plant response rating, Wheat [4, 19] | Plant response rating, Wheat [4, 20] | Sugarbeets plant response rating [7, 18] | Plant response rating, Sugarbeets [7, 19] | B. signalgrass plant response rating [8, 17] | B. signalgrass plant response rating [8, 18] | Plant response rating, Rape [15, 19]
5: Wheat plant response rating [4, 18]
7: Bedstraw plant response rating [13, 18]
2: Soybean plant response rating [3, 18] | Corn plant response rating [6, 17] | Rape plant response rating [15, 17]
9: Corn plant response rating [6, 18] | Plant response rating, Corn [6, 19] | Plant response rating, Corn [6, 20] | Plant response rating, Sugarbeets [7, 20] | Giant foxtail plant response rating [11, 17] | Giant foxtail plant response rating [11, 18] | Crabgrass plant response rating [12, 17] | Crabgrass plant response rating [12, 18] | Plant response rating, Crabgrass [12, 19] | Plant response rating, Bedstraw [13, 19] | Plant response rating, Bedstraw [13, 20] | Blackgrass plant response rating [14, 17] | Plant response rating, Rape [15, 20]
0: Velvetleaf plant response rating [1, 17] | Velvetleaf plant response rating [1, 18] | Plant response rating, Velvetleaf [1, 19] | Plant response rating, Velvetleaf [1, 20] | Morningglory plant response rating [2, 17] | Morningglory plant response rating [2, 18] | Plant response rating, Morningglory [2, 19] | Plant response rating, Morningglory [2, 20] | Soybean plant response rating [3, 17] | Cocklebur plant response rating [5, 17] | Cocklebur plant response rating [5, 18] | Plant response rating, Cocklebur [5, 19] | Plant response rating, Cocklebur [5, 20] | Bedstraw plant response rating [13, 17] | Nutsedge plant response rating [16]
6: Plant response rating, Soybean [3, 20] | Wheat plant response rating [4, 17] | Sugarbeets plant response rating [7, 17] | Redroot pigweed plant response rating [9, 17] | Plant response rating, Nutsedge ([16]; Rate 500 g/ha)
4: Rape plant response rating [15, 18]

CCn1ncc(Cn2c(=O)on(C(=O)N(c3ccc(F)cc3F)C(C)C)c2=O)c1Cl [Compound 682]
7: Plant response rating, Sugarbeets [7, 20] | Plant response rating, B. signalgrass [8, 19] | Plant response rating, Redroot pigweed [9, 20] | Plant response rating, Rape [15, 20]
3: Plant response rating, Morningglory [2, 20] | Blackgrass plant response rating [14, 17]
0: Velvetleaf plant response rating [1, 17] | Plant response rating, Velvetleaf [1, 18] | Plant response rating, Velvetleaf [1, 20] | Morningglory plant response rating [2, 17] | Plant response rating, Morningglory [2, 18] | Soybean plant response rating [3, 17] | Plant response rating, Soybean [3, 18] | Plant response rating, Soybean [3, 20] | Wheat plant response rating [4, 17] | Plant response rating, Wheat [4, 18] | Plant response rating, Wheat [4, 20] | Cocklebur plant response rating [5, 17] | Plant response rating, Cocklebur [5, 18] | Plant response rating, Cocklebur [5, 19] | Plant response rating, Cocklebur [5, 20] | Corn plant response rating [6, 17] | Plant response rating, Corn [6, 18] | Plant response rating, Corn [6, 19] | Plant response rating, Corn [6, 20] | Sugarbeets plant response rating [7, 17] | Plant response rating, Sugarbeets [7, 18] | Wild oats plant response rating [10, 17] | Plant response rating, Wild oats [10, 18] | Bedstraw plant response rating [13, 17] | Plant response rating, Bedstraw [13, 18] | Plant response rating, Bedstraw [13, 19] | Plant response rating, Bedstraw [13, 20] | Rape plant response rating [15, 17] | Plant response rating, Rape [15, 18] | Nutsedge plant response rating [16] | Plant response rating, Nutsedge ([16]; Rate 125 g/ha) | Plant response rating, Nutsedge ([16]; Rate 500 g/ha)
5: Crabgrass plant response rating [12, 17] | Plant response rating, Blackgrass [14, 18]
4: Redroot pigweed plant response rating [9, 17] | Plant response rating, Redroot pigweed [9, 18]
2: B. signalgrass plant response rating [8, 17]
8: Plant response rating, B. signalgrass [8, 20] | Plant response rating, Wild oats [10, 20] | Plant response rating, Blackgrass [14, 19]
6: Plant response rating, B. signalgrass [8, 18]
10: Plant response rating, Giant foxtail [11, 18] | Plant response rating, Giant foxtail [11, 20]
9: Giant foxtail plant response rating [11, 17] | Plant response rating, Crabgrass [12, 18] | Plant response rating, Crabgrass [12, 19] | Plant response rating, Crabgrass [12, 20] | Plant response rating, Blackgrass [14, 20]
